This is an account of results in US8680159B2, “Bradykinin 1 receptor modulating compounds” (Gruenenthal GmbH, priority 2010, dated 2014).

By inhibition is commonly meant the change of the read-out against control, counted positive when it falls.

The first test concerns the target T1, B1R receptor of the rat (CHO K1 cells stably transfected with the B1R gene of the rat) (Rattus norvegicus, UniProt P97583).
T1 construct: expressed in transfected cells; host or cells: CHO K1 cells (Chinese hamster ovary), stably transfected
T1 sequence (P97583 1-337): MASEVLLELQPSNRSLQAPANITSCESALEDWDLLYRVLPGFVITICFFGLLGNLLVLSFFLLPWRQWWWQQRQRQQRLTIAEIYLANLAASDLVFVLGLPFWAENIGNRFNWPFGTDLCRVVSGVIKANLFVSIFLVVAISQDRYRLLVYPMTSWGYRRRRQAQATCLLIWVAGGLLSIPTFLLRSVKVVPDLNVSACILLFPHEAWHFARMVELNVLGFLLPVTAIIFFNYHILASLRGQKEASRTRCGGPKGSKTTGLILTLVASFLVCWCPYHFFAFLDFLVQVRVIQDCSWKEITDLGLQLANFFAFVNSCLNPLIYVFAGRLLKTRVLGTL
Description: Functional study on the bradykinin receptor 1 (B1R), Ca2+ fluorescence (Fluo-4) FLIPR/Novostar assay, rB1R cells. The test is classed as cell-based. Particulars: CHO-K1, 10 μM, library compounds CC_H, read-out: % Inhibition (r-B1R) at 10 μM. A digest of the protocol:
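Stably transfected CHO K1 cells carrying human or rat B1R were Fluo-4 loaded and Ca2+ fluorescence read by FLIPR or Novostar. Compounds were added first at 10 μM for % activation, then the EC80 agonist was applied after 6-20 min (human: Lys-Des-Arg9-bradykinin; rat: Des-Arg9-bradykinin). % inhibition is relative to maximum achievable inhibition, and IC50 comes from concentration series.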
For `Cc1cc(N2CCC(N(C)C(=O)c3ccc4c(c3)C(NC(=O)c3cccnc3C(F)(F)F)CC4)CC2)nc(N(C)C)n1` (stereo not drawn) [CC_H-604, N-[6-[[1-(2-Dimethylamino-6-methyl-pyrimidin-4-yl)-piperidin-4-yl]-methyl-carbamoyl]-2,3-dihydro-1H-inden-1-yl]-2-(trifluoromethyl)-pyridine-3-carboxylic acid amide], the inhibition at 10 µM was found to be 102%. Still for that read-out and setting: in the case of `CN(C(=O)c1ccc2c(c1)C(NC(=O)CCC1CCCC1)CC2)C1CCN(c2ccnnc2)CC1` (stereo not drawn) [CC_H-634, 3-(3-Cyclopentyl-propanoylamino)-N-methyl-N-(1-pyridazin-4-yl-piperidin-4-yl)-2,3-dihydro-1H-indene-5-carboxylic acid amide] it was 93%. As to `CN(C(=O)c1ccc2c(c1)C(NC(=O)c1cccnc1C(F)(F)F)CC2)C1CCN(c2ccnc(S(C)(=O)=O)n2)CC1` (stereo not drawn) [CC_H-600, N-[6-[Methyl-[1-(2-methylsulfonyl-pyrimidin-4-yl)-piperidin-4-yl]-carbamoyl]-2,3-dihydro-1H-inden-1-yl]-2-(trifluoromethyl)-pyridine-3-carboxylic acid amide], the inhibition at 10 µM stood at 91%.

Take `CN(C(=O)c1ccc2c(c1)C(NC(=O)c1ccccc1Cl)CC2)C1CCN(c2ccnc(S(C)(=O)=O)n2)CC1` (stereo not drawn) [CC_H-609, 3-[(2-Chloro-benzoyl)amino]-N-methyl-N-[1-(2-methylsulfonyl-pyrimidin-4-yl)-piperidin-4-yl]-2,3-dihydro-1H-indene-5-carboxylic acid amide]: the inhibition at 10 µM came to 102%.

The same test, now with this note: CHO-K1, 10 μM, read-out: % Inhibition (r-B1R) at 10 μM.
Regarding `CN(C(=O)c1ccc2c(c1)C(NC(=O)c1cccc(C(F)(F)F)c1Cl)CCO2)C1CCN(c2ccncc2)CC1` (stereo not drawn) [CC_H-279, 4-[[2-Chloro-3-(trifluoromethyl)-benzoyl]amino]-N-methyl-N-(1-pyridin-4-yl-piperidin-4-yl)-3,4-dihydro-2H-chromene-6-carboxylic acid amide], the inhibition at 10 µM turned out to be 111%. With `COCC(=O)NC1CCOc2ccc(C(=O)N(C)C3CCN(c4ccncc4)CC3)cc21` (stereo not drawn) [CC_H-276, 4-[(2-Methoxy-acetyl]amino]-N-methyl-N-(1-pyridin-4-yl-piperidin-4-yl)-3,4-dihydro-2H-chromene-6-carboxylic acid amide], the inhibition at 10 µM is 51%. Consider `CN(C(=O)c1ccc2c(c1)C(NC(=O)c1cc(C(F)(F)F)ccc1Cl)CCO2)C1CCN(c2ccncc2)CC1` (stereo not drawn) [CC_H-272, 4-[[2-Chloro-5-(trifluoromethyl)-benzoyl]amino]-N-methyl-N-(1-pyridin-4-yl-piperidin-4-yl)-3,4-dihydro-2H-chromene-6-carboxylic acid amide], for which the inhibition at 10 µM worked out at 112%. `CN(C(=O)c1ccc2c(c1)C(N(C)C(=O)C1CC1)CC2)C1CCN(c2ccncc2)CC1` (stereo not drawn) [CC_H-212, 3-(Cyclopropanecarbonyl-methyl-amino)-N-methyl-N-(1-pyridin-4-yl-piperidin-4-yl)-2,3-dihydro-1H-indene-5-carboxylic acid amide]: the inhibition at 10 µM amounted to 108%. As for `Cc1ccc(NC(=O)NC2CCOc3ccc(C(=O)N(C)C4CCN(c5ccncc5)CC4)cc32)cc1Cl` (stereo not drawn) [CC_H-288, 4-[[(3-Chloro-4-methyl-phenyl)-carbamoyl]amino]-N-methyl-N-(1-pyridin-4-yl-piperidin-4-yl)-3,4-dihydro-2H-chromene-6-carboxylic acid amide], the inhibition at 10 µM amounted to 69%.

As to `Cc1cc(N2CCC(N(C)C(=O)c3ccc4c(c3)C(N(C)C(=O)C3CCCCC3)CC4)CC2)cc(C)n1` (stereo not drawn) [CC_H-330, 3-(Cyclohexanecarbonyl-methyl-amino)-N-[1-(2,6-dimethyl-pyridin-4-yl)-piperidin-4-yl]-N-methyl-2,3-dihydro-1H-indene-5-carboxylic acid amide], the inhibition at 10 µM was determined as 111%. On to `Cc1cc(N2CCC(N(C)C(=O)c3ccc4c(c3)C(NS(=O)(=O)Cc3ccccc3C(F)(F)F)CC4)CC2)cc(C)n1` (stereo not drawn) [CC_H-302, N-[1-(2,6-Dimethyl-pyridin-4-yl)-piperidin-4-yl]-N-methyl-3-[[[2-(trifluoromethyl)-phenyl]-methylsulfonyl]amino]-2,3-dihydro-1H-indene-5-carboxylic acid amide], for which the inhibition at 10 µM was found to be 112%. On to `Cc1cc(N2CCC(N(C)C(=O)c3ccc4c(c3)C(NC(=O)Nc3cccc(Cl)c3Cl)CC4)CC2)cc(C)n1` (stereo not drawn) [CC_H-307, 3-[[(2,3-Dichloro-phenyl)-carbamoyl]amino]-N-[1-(2,6-dimethyl-pyridin-4-yl)-piperidin-4-yl]-N-methyl-2,3-dihydro-1H-indene-5-carboxylic acid amide], for which the inhibition at 10 µM turned out to be 91%. Turning to `CN(C(=O)c1ccc2c(c1)C(NC(=O)c1c(Cl)cccc1C(F)(F)F)CC2(C)C)C1CCN(c2ccncc2)CC1` (stereo not drawn) [CC_H-225, 3-[[2-Chloro-6-(trifluoromethyl)-benzoyl]amino]-N,1,1-trimethyl-N-(1-pyridin-4-yl-piperidin-4-yl)-2,3-dihydro-indene-5-carboxylic acid amide], the inhibition at 10 µM was found to be 112%. Turning to `CN(C(=O)c1ccc2c(c1)C(NC(=O)Nc1cc(Cl)ccc1Cl)CC2(C)C)C1CCN(c2ccncc2)CC1` (stereo not drawn) [CC_H-236, 3-[[(2,5-Dichloro-phenyl)-carbamoyl]amino]-N,1,1-trimethyl-N-(1-pyridin-4-yl-piperidin-4-yl)-2,3-dihydro-indene-5-carboxylic acid amide], the inhibition at 10 µM amounted to 52%. Turning to `CN(C(=O)c1ccc2c(c1)C(N(C)C(=O)Nc1c(Cl)cccc1Cl)CC2)C1CCN(c2ccncc2)CC1` (stereo not drawn) [CC_H-219, 3-[[(2,6-Dichloro-phenyl)-carbamoyl]-methyl-amino]-N-methyl-N-(1-pyridin-4-yl-piperidin-4-yl)-2,3-dihydro-1H-indene-5-carboxylic acid amide], the inhibition at 10 µM amounted to 86%. Consider `CN(C(=O)c1ccc2c(c1)C(N(C)C(=O)c1cc(F)ccc1Cl)CC2)C1CCN(c2ccncc2)CC1` (stereo not drawn) [CC_H-208, 3-[(2-Chloro-5-fluoro-benzoyl)-methyl-amino]-N-methyl-N-(1-pyridin-4-yl-piperidin-4-yl)-2,3-dihydro-1H-indene-5-carboxylic acid amide], for which the inhibition at 10 µM stood at 111%. For the molecule `COc1ccc(Cl)cc1NC(=O)NC1CCc2ccc(C(=O)N(C)C3CCN(c4cc(C)nc(C)c4)CC3)cc21` (stereo not drawn) [CC_H-315, 3-[[(5-Chloro-2-methoxy-phenyl)-carbamoyl]amino]-N-[1-(2,6-dimethyl-pyridin-4-yl)-piperidin-4-yl]-N-methyl-2,3-dihydro-1H-indene-5-carboxylic acid amide], the inhibition at 10 µM is 72%. On the same count and under the same terms, the same measure for `Cc1cc(N2CCC(N(C)C(=O)c3ccc4c(c3)C(NC(=O)Nc3cc(C(F)(F)F)ccc3Cl)CC4)CC2)cc(C)n1` (stereo not drawn) [CC_H-311, 3-[[[2-Chloro-5-(trifluoromethyl)-phenyl]-carbamoyl]amino]-N-[1-(2,6-dimethyl-pyridin-4-yl)-piperidin-4-yl]-N-methyl-2,3-dihydro-1H-indene-5-carboxylic acid amide]: 80%.

As to `CN(C(=O)c1ccc2c(c1)C(NC(=O)c1cc(F)ccc1Cl)CC2(C)C)C1CCN(c2ccncc2)CC1` (stereo not drawn) [CC_H-222, 3-[(2-Chloro-5-fluoro-benzoyl)amino]-N,1,1-trimethyl-N-(1-pyridin-4-yl-piperidin-4-yl)-2,3-dihydro-indene-5-carboxylic acid amide], the inhibition at 10 µM was 110%. Turning to `Cc1cc(N2CCC(N(C)C(=O)c3ccc4c(c3)C(N(C)C(=O)CCC3CCCC3)CC4)CC2)cc(C)n1` (stereo not drawn) [CC_H-354, 3-(3-Cyclopentyl-propanoyl-methyl-amino)-N-[1-(2,6-dimethyl-pyridin-4-yl)-piperidin-4-yl]-N-methyl-2,3-dihydro-1H-indene-5-carboxylic acid amide], the inhibition at 10 µM was determined as 110%. The same measure, in the same setting: in the case of `Cc1cc(N2CCC(N(C)C(=O)c3ccc4c(c3)C(N(C)S(=O)(=O)c3c(C)cccc3Cl)CC4)CC2)cc(C)n1` (stereo not drawn) [CC_H-335, 3-[[(2-Chloro-6-methyl-phenyl)sulfonyl]-methyl-amino]-N-[1-(2,6-dimethyl-pyridin-4-yl)-piperidin-4-yl]-N-methyl-2,3-dihydro-1H-indene-5-carboxylic acid amide] it was 110%; in that of `Cc1cc(N2CCC(N(C)C(=O)c3ccc4c(c3)C(NC(=O)c3cc(F)ccc3Cl)CC4)CC2)cc(C)n1` (stereo not drawn) [CC_H-294, 3-[(2-Chloro-5-fluoro-benzoyl)amino]-N-[1-(2,6-dimethyl-pyridin-4-yl)-piperidin-4-yl]-N-methyl-2,3-dihydro-1H-indene-5-carboxylic acid amide], 111%. Consider `Cc1cc(N2CCC(N(C)C(=O)c3ccc4c(c3)C(N(C)C(=O)Nc3ccc(Cl)cc3Cl)CC4)CC2)cc(C)n1` (stereo not drawn) [CC_H-342, 3-[[(2,4-Dichlorophenyl)-carbamoyl]-methyl-amino]-N-[1-(2,6-dimethyl-pyridin-4-yl)-piperidin-4-yl]-N-methyl-2,3-dihydro-1H-indene-5-carboxylic acid amide], for which the inhibition at 10 µM worked out at 107%.

Turning to `Cc1cc(N2CCC(N(C)C(=O)c3ccc4c(c3)C(NC(=O)C3CC3)CC4)CC2)cc(C)n1` (stereo not drawn) [CC_H-298, 3-(Cyclopropanecarbonylamino)-N-[1-(2,6-dimethyl-pyridin-4-yl)-piperidin-4-yl]-N-methyl-2,3-dihydro-1H-indene-5-carboxylic acid amide], the inhibition at 10 µM came out at 101%.
